{
  "source": "paper PMC4891657",
  "about": "“Orexin 2 Receptor Antagonism is Sufficient to Promote NREM and REM Sleep from Mouse to Man” (Scientific Reports, 2016)",
  "key": {"cataplexy": {"test_system": "cataplexy", "assay": "Food-elicited cataplexy test (FECT)", "assay_type": "in vivo, dog", "conditions": "dogs, 20 mg/kg, 1 hour after administration", "protocol": "A standard measure for quantifying narcolepsy with cataplexy in dogs is the food-elicited cataplexy test (FECT).\nThe FECT was performed essentially as described previously. After a 2-day vehicle run-in period, female dogs (n = 8; Marshall Farms) were treated with MK-1064 (20 mg/kg) or vehicle in a 1-day vehicle x 2-day drug crossover design. Daytime FECTs[32][43][44] with simultaneous video and electrocorticography (ECoG), electromyography (EMG), and electrooculography (EOG) recordings were conducted 1 hour post-dose. Following release into the test room, dogs were remotely monitored while consuming 10 evenly spaced, approximately 1-inch[2] balls of wet dog food (Pedigree® chunk beef). Video and ECoG/EOG/EMG recordings were evaluated for any signs of cataplexy (e.g., collapse, EMG attenuation, sudden-onset REM sleep; see Kushida et al.[43]) and the time needed to consume all 10 balls of food."}, "sleep": {"test_system": "sleep", "assay": "Polysomnography in healthy male subjects", "assay_type": "in vivo, human", "protocol": "In the PSG study, subjects underwent 8-hour PSG recording periods beginning 1 hour after nighttime administration of MK-1064 (50, 120 and 250 mg) or placebo. […] Dose-dependence of the effects of MK-1064, while not evaluated statistically, was most pronounced with regard to LPS, LREM and REM sleep, and to a lesser extent, TST and WASO sleep (Fig. 7b).\nFigure 7 MK-1064 promotes sleep in healthy subjects. MK-1064 (50, 120 and 250 mg) or placebo were administered 1 hour prior to the normal resting phase in healthy subjects (N = 20), and PSG effects were monitored during the normal resting phase.\n(§1) Twenty healthy male subjects between the ages of 18 and 45 years were recruited to a double-blind, randomized, 4-period, crossover study to evaluate the effects of single doses of MK-1064. Subjects were without a history of physical or mental illnesses, had no history of sleep abnormalities, and were not regularly taking medication. Subject inclusion required a sleep score ≤6 on the Pittsburgh Sleep Quality Index at the time of screening, and qualified subjects underwent a PSG screening prior to randomization to exclude those with latent sleep disturbances. In each of the 4 treatment periods, subjects were randomized to receive single doses of MK-1064 (50, 120, or 250 mg) or matching placebo according to a balanced crossover design (see Fig. 5). Briefly, 20 subjects were randomized to 4 panels (n = 5 each). Each panel then received each of the four treatments (placebo, 50, 120, 250 mg MK-1064) in 4 different study periods where each period allocated the 4 different treatments to the 4 different subject panels. Progression through each period rotated the 4 different treatments among the subject panels such that each panel ultimately received all 4 treatments. In all 4 study periods, subjects were admitted for a pre-dose habituation night. On the following treatment night, subjects were administered a single dose of study medication in a blinded manner approximately 1 hour before their habitual bedtime. Study medication was administered following a ≥4-hour fast. Dosing in different treatment periods was separated by a washout of at least 7 days for each subject. PSG recording commenced at 1 hour post-dose and continued during undisturbed sleep for 8 hours overnight. Visual scoring of each 30-sec epoch of PSG recording to wake or one of four sleep states (S1, S2, SWS, collectively referred to as NREM, and REM) was performed according to standard and established Rechtschaffen and Kales criteria. Obtained scores were then used to calculate efficacy assessment measures including latency to persistent sleep (LPS) (min), wake after sleep onset (WASO) (min), sleep efficiency (SE) (%), and total sleep time (TST) (min). LPS is the time from lights off to the first epoch of 20 consecutive epochs of non-wake stage; WASO is the time in wake stage between the onset of persistent sleep and the time of lights on; and SE is the proportion of time between lights off and lights on that was spent in sleep. In addition to efficacy parameters, latency to REM (LREM) (min), equal to the time from lights off to the first epoch of REM, and the proportion (%) of TST spent in NREM and REM were calculated. Estimation of the effects of treatment on PSG endpoints relative to placebo, including the calculation of confidence intervals and p-values were done using a mixed-effect statistical model typical for crossover studies. Specifically, logarithm of an analyzed endpoint represented the response variable, and treatment dose, treatment period, and carryover effect were fixed-effect explanatory variables. Subject effect was the random effect with the within-subject covariance assumed to be of the unstructured type. […] SAS/STAT® Version 9.3 software (SAS Institute, Cary NC) was used in the analysis."}, "[1]": {"assay": "Safety and tolerability, PSG study", "assay_type": "in vivo, human", "description": "In the ascending single-dose study, 52 AEs were considered to be related to the study drug, the most common of which was somnolence/sleepiness, drowsiness, and tiredness (15 of 16 subjects dosed with MK-1064), consistent with the intended pharmacological activity. […] In the PSG study, 13 of the 20 subjects enrolled reported ≥1 clinical AE. Of 24 clinical AEs reported, 18 were considered to be related to study treatment, all of which were mild or moderate in intensity. One report of transient sleep paralysis following MK-1064 250 mg was noted, while the most common MK-1064-related AEs were headache (3 subjects), nightmares (2 subjects) and dizziness (1 subject) (Supplementary Table 2).\nas §1"}, "[2]": {"conditions": "healthy subjects, two highest doses (120, 250 mg)"}},
  "note": "Entries after “also recorded” stand apart in the source; their conditions may differ.",
  "data": [
    {"molecule": "COc1ccc(CNC(=O)c2cc(-c3cncc(Cl)c3)cnc2-c2ccccn2)nc1OC", "note": "[MK-1064, 5″-chloro-N-[(5,6-dimethoxypyridin-2-yl)methyl]-2,2′:5′, 3″-terpyridine-3′-carbo xamide]", "values": [
      {"measurement": "cataplectic episodes in FECT", "setting": "cataplexy", "value": "no cataplectic episodes; also recorded: cataplexy was not observed"},
      {"measurement": "mean time to complete the FECT", "setting": "cataplexy; not significantly different from vehicle", "value": 37.8, "unit": "s"},
      {"measurement": "time spent in Stage 2", "setting": "sleep; healthy subjects, 120 mg", "value": "significant increase"},
      {"measurement": "LPS as fraction of placebo response", "setting": "sleep; healthy subjects, 50, 120 and 250 mg (all doses)", "value": "significant reductions"},
      {"measurement": "WASO as fraction of placebo response", "setting": "sleep; [2]", "value": "significant reductions"},
      {"measurement": "reduction in LREM versus placebo", "setting": "sleep; [2]", "value": "statistically significant"},
      {"measurement": "NREM sleep", "setting": "sleep; healthy subjects, two lower doses (50, 120 mg)", "value": "increases in NREM sleep"},
      {"measurement": "time spent in Stage 1 and SWS", "setting": "sleep; healthy subjects, vs placebo", "value": "not significantly different from placebo"},
      {"measurement": "MK-1064-related AE dizziness", "setting": "[1]", "value": 1, "unit": "subject"},
      {"measurement": "MK-1064-related AE headache", "setting": "[1]", "value": 3, "unit": "subjects"},
      {"measurement": "MK-1064-related AE nightmares", "setting": "[1]", "value": 2, "unit": "subjects"},
      {"measurement": "clinical AEs reported", "setting": "[1]", "value": 24},
      {"measurement": "reports of transient sleep paralysis", "setting": "[1]; 250 mg", "value": "One"},
      {"measurement": "subjects reporting ≥1 clinical AE", "setting": "[1]; 20 subjects enrolled, crossover 50, 120, 250 mg and placebo", "value": 13, "unit": "subjects"},
      {"measurement": "clinical AEs considered to be related to study treatment", "setting": "[1]; all mild or moderate", "value": 18}
    ]}
  ]
}
